Counter-ions that a name gives are not always drawn. Like-named read-outs stand apart in the source and are kept apart here.

In test [1] the test system is Candida albicans TIMM 1623. Kind of test: Antifungal action, microbroth dilution growth inhibition. It is filed as cell-based. The note with it: read-out: IC50 (50% growth inhibitory concentration). How it is done: 50% growth inhibitory concentration (IC50) was measured according to the microbroth dilution method, using, as a reference, the antifungal agent sensitivity test method proposed by the subcommittee for the antifungal agent sensitivity test, the Japanese Society for Medical Mycology (Japanese Journal of Medical Mycology, vol. 36, No. 1, pp. 62 to 64, 1995). Synthetic amino acid medium, fungal (SAAMF, manufactured by Nippon Bio-Supp. Center) was used as a medium for measurement of sensitivity. Candida albicans TIMM 1623 was cultured at 30° C. overnight on a Sabouraud agar plate medium (Eiken Chemical Co., Ltd.), and the obtained culture was suspended in a sterilized physiological saline solution. Thereafter, the suspension was diluted with a measurement medium such that the number of cells became 1×10^4 cells/ml, thereby producing an inoculum organism solution. 175 μl of a medium, 5 μl of a test agent (an agent diluted solvent in a growth control well), and 20 μl of the inoculum organism solution were added to a 96-well microplate (flat bottom, manufactured by Sumitomo Bakelite Co., Ltd.), and the mixture was stirred with a mixer. Thereafter, using a well Reader SME3400 (Scinics Co., Ltd.), an initial turbidity at a wavelength of 630 nm was measured. The above mixture was cultured at 35° C., and 36 hours later, a final turbidity was measure in the same manner. For an agent-diluted line, values were obtained by subtracting the initial turbidities from the final turbidities. For a growth control line also, values were obtained by subtracting the initial turbidities from the final turbidities. IC50 was defined as the lowest agent concentration among the test agent concentrations having a turbidity equal to or lower than the 50% value (IC50 calculated value) of a value obtained by subtracting the initial turbidity of a growth control from the final turbidity thereof.
On the technique in general: Broth dilution looks for growth in wells or tubes with falling amounts of substance.

The test system of test [2] is Candida albicans TIMM 1623. Kind of test: Therapeutic effect on mouse systemic Candida albicans infection, 7 subcutaneous doses, survival to day 28. It is filed as in vivo, ICR male mice. The note with it: 0.2 ml of 0.01 mg/ml solution subcutaneously once a day, 7 times in total; five mice per group; control group all died. The method, then: Candida albicans TIMM 1623 was cultured at 30° C. overnight on a Sabouraud agar plate medium (Eiken Chemical Co., Ltd.), and the cultured fumgus was suspended in a sterilized physiological saline solution. Thus, a fungal solution for infection, having a concentration of approximately 10^7 cells/ml, was prepared. 0.2 ml of this fungal solution was inoculated into the tail vein of each of five ICR male mice (4-week-old, body weight of 20±1 g). 2 hours after the infection, 0.2 ml of a solution, which had been prepared by dissolving a test compound into a sterilized physiological saline solution and adjusting the concentration at 0.01 mg/ml, was administered once into the dorsal subcutis of each mouse. From the following day, the same solution was administered thereto once a day for 6 days. Thus, the above solution was administered into the dorsal subcutis of the mice 7 times in total. To mice of a control group, an equal amount of a sterilized physiological saline solution was administered. Viability of the mice was observed until the 28th day after the infection.

Test [3] deals with Candida albicans TIMM 1623. Kind of test: Therapeutic effect on mouse systemic Candida albicans infection, single subcutaneous dose, T/C survival. The note with it: 0.1 mg/kg, administered once into the dorsal subcutis 2 hours after infection; observed until the 14th day. It is filed as in vivo, ICR male mice. The method, then:
Candida albicans TIMM 1623 was cultured at 30° C. overnight on a Sabouraud agar plate medium (Eiken Chemical Co., Ltd.), and the obtained culture was suspened in a sterilized physiological saline solution. Thus, a fungal solution for infection, having a concentration of 1×10^7 cells/ml, was prepared. This fungal solution was inoculated in a concentration of 0.2 ml (2×10^6 CFU/mouse) into the tail vein of each of five ICR male mice (4-week-old, body weight of 20±1 g). 2 hours later, 0.2 ml of a solution, which had been prepared by dissolving a test compound into a sterilized physiological saline solution and setting the concentration at 0.01 mg/ml, was administered once into the dorsal subcutis of each mouse. To mice of a control group, an equal amount of a sterilized physiological saline solution was administered.
Viability of the mice was observed until the 14th day after the infection, and the cumulative survival rate (T/C) of the treatment group to the control group was calculated, and the obtained value was used as an index of the life-prolonging effect.

[4] abbreviates: TIMM1623, Candida albicans TIMM 1623, SAAMF medium, 35° C., 36 hours, turbidity at 630 nm.
Setting [5] is: Candida albicans, TIMM1623, 36 h.

`N=C(N)c1ccc(OCCCN2CCN(CCCOc3ccc(C(=N)N)cc3)C(=O)C2=O)cc1` [Example 19, 4-{3-[4-(3-{4-[amino(imino)methyl]phenoxy}propyl)-2,3-dioxo-1-piperazinyl]propoxy}benzamidine acetate]: the IC50 in test [1] (setting [4]) worked out at 0.125 µg/mL.
With `N=C(N)c1ccc(OCCCN)cc1` [Example 9-2, 4-(3-aminopropoxy)benzamidine Hydrochloride], the IC50 in test [1] (setting [5]) worked out at 0.5 µg/mL.
In the case of `N=C(N)c1ccc(OCCCNCCCOc2ccc(C(=N)N)cc2)cc1` [Example 32, 4-{3-[(3-{4-[amino(imino)methyl]phenoxy}propyl)amino]propoxy}benzamidine Hydrochloride], the IC50 in test [1] (setting [5]) turned out to be 0.0313 µg/mL.
Still for that read-out and setting: with `N=C(N)c1ccc(OCCCN2CCN(CCCOc3ccc(C(=N)N)c(F)c3)CC2)cc1F` [Example 42, 4-{3-[4-(3-{4-[amino(imino)methyl]-3-fluorophenoxy}propyl)-1-piperazinyl]propoxy}-2-fluorobenzamidine Hydrochloride] the figure was 0.0156 µg/mL.
On the same count and under the same terms, with `N=C(N)c1ccc(OCCCN2CCN(CCCOc3ccc(C(=N)N)cc3F)CC2)c(F)c1` [Example 43, 4-{3-[4-(3-{4-[amino(imino)methyl]-2-fluorophenoxy}propyl)-1-piperazinyl]propoxy}-3-fluorobenzamidine Hydrochloride] the figure was 0.0313 µg/mL.
`N=C(N)c1ccc(OCCCN2CCCN(CCCOc3ccc(C(=N)N)cc3)CC2)cc1` [Example 55, 4-{3-[4-(3-{4-[amino(imino)methyl]phenoxy}propyl)-1,4-diazepan-1-yl]propoxy}benzamidine Hydrochloride]: in test [1] (setting [5]), the IC50 was found to be 0.0156 µg/mL.
The same measure, in the same setting: with `N=C(N)c1ccc(OCCCNC2CCN(CCCOc3ccc(C(=N)N)cc3)CC2)cc1` [Example 58, 4-(3-{[1-(3-{4-[amino(imino)methyl]phenoxy}propyl)-4-piperidinyl]amino}propoxy)benzamidine Hydrochloride] the figure was 0.0313 µg/mL; with `N=C(N)c1ccc(OCCCNCCNCCCOc2cccc(C(=N)N)c2)cc1` [Example 74, 3-[3-({2-[(3-{4-[amino(imino)methyl]phenoxy}propyl)amino]ethyl}amino)propoxy]benzamidine Hydrochloride], 0.125 µg/mL.
As for `N=C(N)c1ccc(OCCCCNCCNCCCCOc2ccc(C(=N)N)cc2)cc1` [Example 26, 4-[4-({2-[(4-{4-[amino(imino)methyl]phenoxy}butyl)amino]ethyl}amino)butoxy]benzamidine Hydrochloride], the IC50 in test [1] (setting [5]) worked out at 0.0625 µg/mL.
On to `N=C(N)c1ccc(OCCNCCNCCOc2ccc(C(=N)N)cc2)cc1` [Example 25, 4-[2-({2-[(2-{4-[amino(imino)methyl]phenoxy}ethyl)amino]ethyl}amino)ethoxy]benzamidine Hydrochloride], for which the IC50 in test [1] (setting [5]) was found to be 0.0156 µg/mL.
Regarding `N=C(N)c1ccc(OCCCN2CCC(CCOc3ccc(C(=N)N)cc3)CC2)cc1` [Example 56, 4-{2-[1-(3-{4-[amino(imino)methyl]phenoxy}propyl)-4-piperidinyl]ethoxy}benzamidine Hydrochloride], the IC50 in test [1] (setting [5]) was determined as 0.0039 µg/mL. In addition, the “survival ratio on the 28th day after the infection” value (“survival ratio on the 28th day” for short) in test [2] is recorded as 4/5.
In the case of `CNCCCOc1ccc(C(=N)N)cc1` [Example 2, 4-[3-(methylamino)propoxy]benzamidine Hydrochloride], the IC50 in test [1] (setting [5]) came to 2 µg/mL.
Take `N=C(N)c1ccc(OCCN2CCN(CCOc3ccc(C(=N)N)cc3)C(=O)C2=O)cc1` [Example 20, 4-{2-[4-(2-{4-[amino(imino)methyl]phenoxy}ethyl)-2,3-dioxo-1-piperazinyl]ethoxy}benzamidine Acetate]: in test [1] (setting [4]), the IC50 stood at 0.125 µg/mL.
As to `N=C(N)c1ccc(OCCCNC2CCN(CCCOc3ccc(C(=N)N)cc3)C2)cc1` (stereo not shown) [Example 57, 4-(3-{3-[(3-{4-[amino (imino)methyl]phenoxy}propyl)amino]-1-pyrrolidinyl}propoxy)benzamidine Hydrochloride], in test [1] (setting [5]), the IC50 is 0.0313 µg/mL.
The same measure, in the same setting: the value for `N=C(N)c1ccc(OCCCNCCNCCOc2ccc(C(=N)N)cc2)cc1` [Example 27, 4-[3-({2-[(2-{4-[amino(imino)methyl]phenoxy}ethyl)amino]ethyl}amino)propoxy]benzamidine Hydrochloride] was 0.0313 µg/mL.
Turning to `N=C(N)c1ccc(OC/C=C/CN2CCN(CCCOc3ccc(C(=N)N)cc3)C(=O)C2=O)cc1` [Example 23, 4-({(E)-4-[4-(3-{4-[amino(imino)methyl]phenoxy}propyl)-2,3-dioxo-1-piperazinyl]-2-butenyl}oxy)benzamidine Acetate], in test [1] (setting [4]), the IC50 was found to be 2 µg/mL.
For `N=C(N)c1ccc(OCCCN2CCN(CCCOc3ccc(C(=N)N)cc3)CC2)cc1` [Example 40-2, 4-{3-[4-(3-{4-[amino(imino)methyl]phenoxy}propyl)-1-piperazinyl]propoxy}benzamidine hydrochloride], the IC50 in test [1] (setting [5]) came to 0.0039 µg/mL. Further, the “survival ratio on the 28th day” value in test [2] is listed as 4/5.
For the compound `N=C(N)c1ccc(OCCCCCN)cc1` [Example 7, 4-[(5-aminopentyl)oxy]benzamidine Hydrochloride], the IC50 in test [1] (setting [5]) stood at 0.5 µg/mL.
Same read-out and setting: the value for `N=C(N)c1ccc(OCCCNCCCCCC(=O)O)cc1` [Example 3-2, 6-[(3-{4-[amino(imino)methyl]phenoxy}propyl)amino]hexanoic Acid Hydrochloride] was 0.5 µg/mL.
On to `N=C(N)c1ccc(OCCCCN2CCN(CCCCOc3ccc(C(=N)N)cc3)C(=O)C2=O)cc1` [Example 21, 4-{4-[4-(4-{4-[amino(imino)methyl]phenoxy}butyl)-2,3-dioxo-1-piperazinyl]butoxy}benzamidine Acetate], for which, in test [1] (setting [4]), the IC50 turned out to be 0.25 µg/mL.
As for `N=C(N)c1ccc(OCCCCN)cc1` [Example 5, 4-(4-aminobutoxy)benzamidine hydrochloride], the IC50 in test [1] (setting [5]) amounted to 0.25 µg/mL.
The same measure, in the same setting: with `N=C(N)c1ccc(OCCCNCCN)cc1` [Example 10, 4-{3-[(2-aminoethyl)amino]propoxy}benzamidine hydrochloride] the figure was 1 µg/mL.
As to `N=C(N)c1ccc(OCCCNCCNCCCOc2ccc(C(=N)N)cc2)cc1` [Example 24, 4-[3-({2-[(3-{4-[amino(imino)methyl]phenoxy}propyl)amino]ethyl}amino)propoxy]benzamidine hydrochloride], in test [3], the “cumulative survival rate (T/C) of the treatment group to the control group” value was determined as 180. The IC50 in test [1] (setting [5]) came to 0.0078 µg/mL. Further, the “survival ratio on the 28th day” value in test [2] is 3/5.
Consider `N=C(N)c1ccc(OCCCN2CCN(CCOc3ccc(C(=N)N)cc3)C(=O)C2=O)cc1` [Example 22, 4-{3-[4-(2-{4-[amino(imino)methyl]phenoxy}ethyl)-2,3-dioxo-1-piperazinyl]propoxy}benzamidine Acetate], for which, in test [1] (setting [4]), the IC50 turned out to be 2 µg/mL.
